# Results taken from patent US12466813B2, “PRC1 inhibitors and methods of treatment therewith” (The Regents of the University of Michigan, priority 2018, dated 2025).
# Biological target: T1, RING1B-BMI1 (Homo sapiens, UniProt Q99496)
# T1 sequence (Q99496 1-336): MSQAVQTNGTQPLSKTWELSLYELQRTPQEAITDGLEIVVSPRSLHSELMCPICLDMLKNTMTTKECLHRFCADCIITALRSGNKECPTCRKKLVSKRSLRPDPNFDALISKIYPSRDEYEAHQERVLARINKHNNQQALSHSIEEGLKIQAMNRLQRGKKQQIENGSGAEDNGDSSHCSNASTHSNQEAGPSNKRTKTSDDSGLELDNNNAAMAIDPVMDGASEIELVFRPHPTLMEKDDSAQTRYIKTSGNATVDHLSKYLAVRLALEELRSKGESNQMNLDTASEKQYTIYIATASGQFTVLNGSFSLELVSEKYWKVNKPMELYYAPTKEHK
# T1 sequence (P35226 1-326 partner): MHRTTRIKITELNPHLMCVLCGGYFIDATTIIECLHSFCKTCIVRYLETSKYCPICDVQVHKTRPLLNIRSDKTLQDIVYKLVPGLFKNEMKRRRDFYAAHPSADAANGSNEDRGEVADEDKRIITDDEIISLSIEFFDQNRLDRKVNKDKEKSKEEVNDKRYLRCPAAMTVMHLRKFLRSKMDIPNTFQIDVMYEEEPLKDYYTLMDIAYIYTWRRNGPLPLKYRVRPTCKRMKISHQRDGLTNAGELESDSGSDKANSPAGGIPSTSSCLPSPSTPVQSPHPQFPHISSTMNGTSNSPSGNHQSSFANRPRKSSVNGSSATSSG
# Assay: KD classes of Table A (direct binding to Ring1B-Bmi1)
# Settings: class given in Table A
row,Kd,SMILES
1,> 100 µM,CCc1c(-c2cccc3c2ccn3CCO)[nH]c(C(=O)O)c1-c1ccc(OC)cc1Cl [COMPOUND 103]
2,< 20 µM,Cc1ccc2[nH]ccc2c1-c1c(C(=O)O)[nH]c(-c2cc(F)cc3[nH]ccc23)c1C(C)C [compound 241]
3,< 20 µM,COc1ccc2[nH]ccc2c1-c1c(C(=O)O)[nH]c(-c2cc(F)cc3[nH]ccc23)c1C(C)C [compound 244]
4,< 20 µM,CC(C)c1c(-c2cc(F)cc3[nH]ccc23)[nH]c(C(=O)O)c1-c1c(Cl)cnc2[nH]ccc12 [compound 245]
5,< 20 µM,CC(C)c1c(-c2cc(F)cc3[nH]ccc23)[nH]c(C(=O)O)c1-c1c(C(F)(F)F)cnc2[nH]ccc12 [compound 248]
6,< 20 µM,CC(C)c1c(-c2cc(F)cc3[nH]ccc23)[nH]c(C(=O)O)c1-c1ccnc2[nH]c(-c3ccsc3)cc12 [compound 250]
7,< 20 µM,CC(C)c1c(-c2cc(F)cc3[nH]ccc23)[nH]c(C(=O)O)c1-c1ccnc2[nH]c(-c3ccccc3)cc12 [compound 251]
8,< 20 µM,CC(C)c1c(-c2cc(F)cc3[nH]ccc23)[nH]c(C(=O)O)c1-c1ccnc2[nH]c(-c3cccc(Cl)c3)cc12 [compound 253]
9,< 20 µM,CC(C)c1c(-c2cc(F)cc3[nH]ccc23)[nH]c(C(=O)O)c1-c1ccnc2[nH]c(-c3ccccc3Cl)cc12 [compound 254]
10,< 20 µM,CC(C)c1c(-c2cc(F)cc3[nH]ccc23)[nH]c(C(=O)O)c1-c1ccnc2[nH]c(C3=CCNCC3)cc12 [compound 255]
11,< 20 µM,CC(C)c1c(-c2cc(F)cc3[nH]ccc23)[nH]c(C(=O)O)c1-c1ccnc2[nH]c(C3=CCN(S(C)(=O)=O)CC3)cc12 [compound 256]
12,< 20 µM,CC(C)c1c(-c2cc(F)cc3[nH]ccc23)[nH]c(C(=O)O)c1-c1cccc2[nH]c(-c3cc[nH]n3)cc12 [compound 258]
13,< 20 µM,CC(C)c1c(-c2cc(F)cc3[nH]ccc23)[nH]c(C(=O)O)c1-c1cccc2[nH]c(-c3ccccc3)cc12 [compound 259]
14,< 20 µM,CC(C)c1c(-c2cc(F)cc3[nH]ccc23)[nH]c(C(=O)O)c1-c1cccc2[nH]c(C(=O)NCc3nccs3)cc12 [compound 262]
15,< 20 µM,CC(C)c1c(-c2cc(F)cc3[nH]ccc23)[nH]c(C(=O)O)c1-c1cccc2c1ccn2CS(N)(=O)=O [compound 263]
16,< 20 µM,CC(C)c1c(-c2cc(F)cc3[nH]ccc23)[nH]c(C(=O)O)c1-c1cccc2c1ccn2CS(C)(=O)=O [compound 264]
17,< 20 µM,CC(C)c1c(-c2cc(F)cc3[nH]ccc23)[nH]c(C(=O)O)c1-c1cccc2ncccc12 [compound 268]
18,< 20 µM,CC(C)c1c(-c2cccc3[nH]ccc23)c(C(=O)O)n2c1-c1cc(F)cc3ccn(c13)CC2 [compound 270]
19,< 20 µM,CC(C)c1c(-c2cccc3[nH]ccc23)c(C(=O)O)n2c1-c1cc(F)cc3ccn(c13)[C@H](C)C2 [compound 272]
20,< 20 µM,CC(C)c1c(-c2cccc3[nH]ccc23)c(C(=O)O)n2c1-c1cc(F)cc3ccn(c13)S(=O)(=O)C2 [compound 273]
21,< 20 µM,CC(C)c1c(-c2cccc3[nH]ccc23)c(C(=O)O)n2c1-c1cc(F)cc3ccn(c13)C(=O)C2 [compound 274]

# Continued, compound first:
row,SMILES,Kd
1,CSCc1ccc2[nH]ccc2c1-c1c(C(=O)O)[nH]c(-c2cc(F)cc3[nH]ccc23)c1C(C)C [compound 238],< 20 µM
2,CNCc1ccc2[nH]ccc2c1-c1c(C(=O)O)[nH]c(-c2cc(F)cc3[nH]ccc23)c1C(C)C [compound 239],< 20 µM
3,CCNc1ccc2[nH]ccc2c1-c1c(C(=O)O)[nH]c(-c2cc(F)cc3[nH]ccc23)c1C(C)C [compound 240],< 20 µM
4,CCc1ccc2[nH]ccc2c1-c1c(C(=O)O)[nH]c(-c2cc(F)cc3[nH]ccc23)c1C(C)C [compound 242],< 20 µM
5,CC(C)c1c(-c2cc(F)cc3[nH]ccc23)[nH]c(C(=O)O)c1-c1c(F)ccc2[nH]ccc12 [compound 243],< 20 µM
6,CC(C)c1c(-c2cc(F)cc3[nH]ccc23)[nH]c(C(=O)O)c1-c1c(F)cnc2[nH]ccc12 [compound 246],< 20 µM
7,COc1cnc2[nH]ccc2c1-c1c(C(=O)O)[nH]c(-c2cc(F)cc3[nH]ccc23)c1C(C)C [compound 247],< 20 µM
8,CC(C)c1c(-c2cc(F)cc3[nH]ccc23)[nH]c(C(=O)O)c1-c1ccnc2[nH]c(-c3cc[nH]n3)cc12 [compound 249],< 20 µM
9,COc1ccc(-c2cc3c(-c4c(C(=O)O)[nH]c(-c5cc(F)cc6[nH]ccc56)c4C(C)C)ccnc3[nH]2)cc1 [compound 252],< 20 µM
10,CC(C)c1c(-c2cc(F)cc3[nH]ccc23)[nH]c(C(=O)O)c1-c1ccnc2[nH]c(C3=CCN(S(=O)(=O)N(C)C)CC3)cc12 [compound 257],< 20 µM
11,CC(C)c1c(-c2cc(F)cc3[nH]ccc23)[nH]c(C(=O)O)c1-c1cccc2[nH]c(C(=O)Nc3ccccc3)cc12 [compound 260],< 20 µM
12,CC(C)c1c(-c2cc(F)cc3[nH]ccc23)[nH]c(C(=O)O)c1-c1cccc2[nH]c(C(=O)Nc3nccs3)cc12 [compound 261],< 20 µM
13,CC(C)c1c(-c2cc(F)cc3[nH]ccc23)[nH]c(C(=O)O)c1-c1cccc2c1ccn2CCNS(C)(=O)=O [compound 265],< 20 µM
14,CC(C)c1c(-c2cc(F)cc3[nH]ccc23)[nH]c(C(=O)O)c1-c1cccc2c1ccn2CCS(N)(=O)=O [compound 266],< 20 µM
15,CC(C)c1c(-c2cc(F)cc3[nH]ccc23)[nH]c(C(=O)O)c1-c1cccc2c1ccn2CCS(C)(=O)=O [compound 267],< 20 µM
16,CC(C)c1c(-c2cc(F)cc3[nH]ccc23)[nH]c(C(=O)O)c1-c1c2cc[nH]c2cc2[nH]ccc12 [compound 269],< 20 µM
17,CC(C)c1c(-c2cccc3[nH]ccc23)c(C(=O)O)n2c1-c1cc(F)cc3ccn(c13)[C@@H](C)C2 [compound 271],< 20 µM

# System: TEX cells
# Assay: Differentiation and CD34 marker of TEX cells
# Assay type: cell-based
# Settings: FIG. 4
# Procedure: FIGS. 4A-F. COMPOUND 1 inhibits PRC1 in TEX cells. FIG. 4A. Inhibition of H2Aub in TEX cells. FIG. 4B. Differentiation of TEX cells upon treatment with COMPOUND 1. […] FIG. 4C. GSEA analysis of TEX cells showing revers of stem cell signature. FIG. 4D. […] FIG. 4E. Gene expression changes upon treatment with COMPOUND 1. FIG. 4F.
# Experiments were conducted during development of embodiments herein to develop small molecule inhibitors of PRC1 by targeting the Ring1B-BMI1 E3 ligase. These compounds bind directly to Ring1B-Bmi1 with low-micromolar affinity and inhibit PRC1 in vitro and in cells. […] Experiments were conducted during development of embodiments herein to test COMPOUND 1 in leukemia stem cell models represented by TEX cells (Ref. 22; herein incorporated by reference in its entirety) and M9-ENL1 cells (Ref. 23; herein incorporated by reference in its entirety). […] In some embodiments, COMPOUND 1 and COMPOUND 1 analogs are find use as agents in targeting leukemia and other cancer stem cells.
row,SMILES,differentiation of TEX cells
1,CCc1c(-c2cccc3c2ccn3CCO)[nH]c(C(=O)O)c1-c1ccc(OC)cc1Cl [COMPOUND 103],does not induce differentiation
